In patent US12263144B2, “Methods of treating IgA nephropathy with thiol-containing molecules” (Accubit LLC—Biotechnology, priority 2020, dated 2025):

System: glomerular rIgA deposition
Experiment: Passive rat model of IgA deposition (rat rIgA injection), glomerular immunofluorescence
Type: in vivo, Wistar rats
Details: rats, 250 mg/kg s.c. daily 2 h before rIgA i.v., 5 days, n=3; control 1384±290
Protocol: To establish the passive rat model, 5 mg/kg.BW recombinant rat rIgA, which contained a fraction of poly-rIgA, were i.v. injected daily to six 14-weeks old male Wistar rats (Charles River Labs, USA) for 5 consecutive days. Every day, three rats in each group had received a subcutaneous dose of either 250 mg/kg cysteamine, or buffer control, two hours before the rIgA injection. Twenty-four hours after the last injection of rIgA, kidneys were collected for immunofluorescence detection of deposits with goat-anti-rat IgA antibody (Cat: STAR111, Biorad laboratory). Similarly, a passive IgA nephrophathy mouse model was established by injecting 35 mg/kg purified human IgA1 in BALB/c mice (Charles River Labs). Two hours before IgA1 injection, six mice in each experimental group had each received a pretreatment dose of either 200 mg/kg cysteamine, or PBS, via subcutaneous injection. Two and a half hours after human IgA1 injection, kidneys were harvested, and specimens were stained with FITC-conjugated anti-human IgA antibody (Cat: 2050-02, SouthernBiotech). Plasma samples were collected at 0.5 h, 1 h and 2 h after IgA1 injection of all mice.
Frozen tissues were sectioned at 4 μm for IgA detection using goat anti-rat IgA (Cat: STAR111, Bio-Rad Laboratories) at 1:100, or anti-human IgA antibody (Cat: 2050-02, […]) at 1:80 dilution. […]

Compound: NCCS [cysteamine]
- quantitation of rIgA deposit in glomeruli (Mean±SEM immunofluorescence intensity): 523±76
